Data: US5618812A, “Benzodiazepine derivatives” (Merck Sharp & Dohme, Ltd., priority 1992, dated 1997)
Structures can show the parent of a compound that is named as a salt. Where two headings read alike, the source gives them in different places.

Experiments:
[1] = target: T1, CCK-B (Cavia porcellus, UniProt H0VZC5); assay: displacement of specific 125I-CCK from guinea pig brain (CCK-B receptor binding)
T1 construct: guinea pig brain (CCK-B); from tissue; host or cells: guinea pig brain
T1 sequence (H0VZC5 1-426): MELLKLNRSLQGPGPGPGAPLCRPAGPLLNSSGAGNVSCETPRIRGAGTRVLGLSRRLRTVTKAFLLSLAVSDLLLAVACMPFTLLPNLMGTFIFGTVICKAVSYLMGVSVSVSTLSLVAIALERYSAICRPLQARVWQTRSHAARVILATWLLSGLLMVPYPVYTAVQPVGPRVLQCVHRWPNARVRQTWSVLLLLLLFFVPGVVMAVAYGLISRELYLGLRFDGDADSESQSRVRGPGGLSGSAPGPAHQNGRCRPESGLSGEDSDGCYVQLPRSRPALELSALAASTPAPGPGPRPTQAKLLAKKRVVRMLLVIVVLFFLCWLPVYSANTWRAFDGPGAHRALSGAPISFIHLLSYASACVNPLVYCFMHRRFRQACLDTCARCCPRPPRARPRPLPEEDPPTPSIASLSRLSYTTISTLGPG
Description: (§1) The CCK-A and CCK-B antagonising activity of the compounds described herein was evaluated using the assays described in published European patent application no. 0514133. The method essentially involves determining the concentration of the test compound required to displace 50% of the specific ^125 I-CCK from rat pancreas (CCK-A) or guinea pig brain (CCK-B). The data in Table 1 were obtained for compounds of the Examples.

[2] = target: T2, CCK-A (Rattus norvegicus, UniProt P30551); assay: biochemical; assay type: binding
T2 sequence (P30551 1-444): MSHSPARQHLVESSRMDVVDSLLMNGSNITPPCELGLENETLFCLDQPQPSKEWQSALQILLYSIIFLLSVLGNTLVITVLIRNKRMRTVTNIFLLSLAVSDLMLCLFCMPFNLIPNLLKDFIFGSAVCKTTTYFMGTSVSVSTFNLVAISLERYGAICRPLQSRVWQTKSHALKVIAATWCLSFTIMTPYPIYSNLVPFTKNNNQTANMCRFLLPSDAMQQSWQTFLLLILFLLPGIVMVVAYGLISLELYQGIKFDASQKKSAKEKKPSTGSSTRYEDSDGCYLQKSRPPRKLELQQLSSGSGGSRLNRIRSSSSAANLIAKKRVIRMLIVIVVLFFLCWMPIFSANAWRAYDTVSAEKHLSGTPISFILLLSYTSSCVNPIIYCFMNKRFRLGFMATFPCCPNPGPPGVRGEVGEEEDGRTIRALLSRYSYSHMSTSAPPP
Description: as §1, with “(CCK-B).” for “(CCK-B). The data in Table 1 were obtained for compounds of the Examples.”

[3] = read-out: CCK RECEPTOR BINDING RESULTS IC50 125I-CCK Brain
[4] = rat pancreas (CCK-A), 125I-CCK, read-out: CCK RECEPTOR BINDING RESULTS IC50 125I-CCK Pancreas
[5] = CCK RECEPTOR BINDING RESULTS IC50 125I-CCK Brain
[6] = CCK RECEPTOR BINDING RESULTS IC50 125I-CCK Pancreas, rat pancreas (CCK-A), 125I-CCK

Q: `Cc1cccc(NC(=O)NC2N=C(N3CCC(C)CC3)c3ccccc3N(C)C2=O)c1` (single isomer, unassigned) [8 (enantiomer B)] was tested. Which IC50 [1, 3] did it give?
A: The IC50 was 0.0232 µM.

Q: And the IC50 [2, 4]?
A: Its IC50 is 0.00261 µM.

Q: `Cc1cccc(NC(=O)NC2N=C(N(C)C3CCCCCC3)c3ccccc3N(C)C2=O)c1` (single isomer, unassigned; (+)) [Example 68, (+)-5-(N-Cycloheptyl-N-methylamino)-2,3-dihydro-1-methyl-2-oxo-1H-1,4-benzodiazepin-3-yl-N'-[3-methylphenyl]urea. Hydrochloride] was tested. Which IC50 [1, 3] did it give?
A: Its IC50 is 0.0266 µM.

Q: What about the IC50 [2, 4] of the same compound?
A: Its IC50 is 0.0534 µM.

Q: With `Cc1cccc(NC(=O)NC2N=C(N3CCC(C(F)(F)F)CC3)c3ccccc3N(C)C2=O)c1` (single isomer, unassigned) [20 (enantiomer B)] as the compound, how does the IC50 [1, 3] read?
A: The IC50 was 0.044 µM.

Q: What about the IC50 [2, 4] of the same compound?
A: The IC50 was 0.04 µM.

Q: How did the IC50 [1, 3] turn out when `CCCN1C(=O)C(NC(=O)Nc2cccc(C)c2)N=C(N(C)C2CCCCC2)c2ccccc21` (single isomer, unassigned; (-)) [Example 61, (-)-5-(N-Cyclohexyl-N-methylamino)-2,3-dihydro-2-oxo-1-propyl-1H-1,4-benzodiazepin-3-yl-N'[3-methylphenyl]urea] was run?
A: The IC50 was 0.00022 µM.

Q: And the IC50 [2, 4]?
A: Its IC50 is 0.704 µM.

Q: `Cc1cccc(NC(=O)NC2N=C(NC3CCCCC3)c3ccccc3N(C)C2=O)c1` (racemic) [Example 81, N-[3(R,S)-5(N-Cyclohexylamino)-2,3-dihydro-1-methyl-2-oxo-1H-1,4-benzodiazepin-3-yl]-N'-[3-methylphenyl]urea] was tested. Which IC50 [1, 3] did it give?
A: The IC50 was 0.0232 µM.

Q: What about the IC50 [2, 4] of the same compound?
A: The IC50 was 0.0149 µM.

Q: Which results are given for `CN1C(=O)C(NC(=O)c2cc3ccccc3[nH]2)N=C(N2CC3CCC(CC3)C2)c2ccccc21` (single isomer, unassigned; (-)) [Example 88, (-)-N-(5-(3-Azabicyclo[3,2,2]nonan-3-yl)-2,3-dihydro-1-methyl-2-oxo-1H-1,4-benzodiazepin-3-yl)-1H-indole-2-carboxamide hydrochloride]?
A: IC50 [1, 5]: 0.066 µM; IC50 [2, 6]: 0.393 µM

Q: What does the source list for `Cc1cccc(NC(=O)NC2N=C(N3CCC(C)(C)CC3)c3ccccc3N(CC(F)(F)F)C2=O)c1` (single isomer, unassigned) [28 (enantiomer A)]?
A: IC50 [1, 3]: 0.0278 µM; IC50 [2, 4]: 0.239 µM

Q: For `CC1CCN(C2=NC(NC(=O)Nc3ccc4c(c3)CCC4)C(=O)N(C)c3ccccc32)CC1` (single isomer, unassigned; (-)) [Example 12, (-)-N-[2,3,Dihydro-1-methyl-5-(4-methylpiperidin-1-yl)-2-oxo-1H-1,4-benzodiazepin-3-yl]N'-[indan-5-yl]urea hydrochloride], which IC50 [1, 3] is on record?
A: Its IC50 is 0.00028 µM.

Q: And the IC50 [2, 4]?
A: The IC50 was 2.18 µM.

Q: Which results are given for `CCCN1C(=O)C(NC(=O)Nc2cccc(C)c2)N=C(N2CCC(=O)CC2)c2ccccc21` (racemic) [Example 2, N-[3(R,S)-2,3-Dihydro-2-oxo-5-(4-oxopiperidin-1-yl)-1-propyl-1H-1,4-benzodiazepin-3-yl]N'-[3-methylphenyl] urea]?
A: IC50 [1, 3]: 0.00202 µM; IC50 [2, 4]: 0.871 µM

Q: Which results are given for `Cc1cccc(NC(=O)NC2N=C(N(Cc3ccccc3)C3CCCCC3)c3ccccc3N(C)C2=O)c1` (racemic) [Example 80, N-[3(R,S)-5-(N-Benzyl-N-cyclohexylamino)-2,3-dihydro-1-methyl-2-oxo-1H-1,4-benzodiazepin-3-yl]-N'-[3-methylphenyl]urea]?
A: IC50 [1, 3]: 0.0324 µM; IC50 [2, 4]: 1.14 µM

Q: Which results are given for `Cc1cccc(NC(=O)NC2N=C(N3[C@H](C)CCC[C@@H]3C)c3ccccc3N(C)C2=O)c1` (stereo partly drawn) [Example 6, N-[3(R,S)-2,3-Dihydro-5-(cis-2,6-dimethylpiperidin-1-yl)-1-methyl-2-oxo-1H-1,4-benzodiazepin-3-yl]N'-[3-methylphenyl]urea]?
A: IC50 [1, 3]: 0.0109 µM; IC50 [2, 4]: 0.235 µM

Q: How did the IC50 [1, 3] turn out when `Cc1cccc(NC(=O)NC2N=C(N3CC4CCC(C4)C3)c3ccccc3N(C)C2=O)c1` (single isomer, unassigned; (-)) [Example 39, (-)-N-[5-(3-Azabicyclo[3,2,1]octan-3-yl)-2,3-dihydro-1-methyl-2-oxo-1H-1,4-benzodiazepin-3-yl]-N'-[3-methylphenyl]urea Hydrochloride] was run?
A: Its IC50 is 0.00017 µM.

Q: What about the IC50 ([2]; read-out: CCK RECEPTOR BINDING RESULTS IC50 125I-CCK Pancreas) of the same compound?
A: Its IC50 is 4.01 µM.

Q: How did the IC50 [1, 3] turn out when `Cc1cccc(NC(=O)NC2N=C(N3CCCCC3(C)C)c3ccccc3N(C)C2=O)c1` (single isomer, unassigned) [22 (enantiomer A)] was run?
A: The IC50 was 0.0329 µM.

Q: And the IC50 [2, 4]?
A: The IC50 was 3.67 µM.

Q: With `Cc1cccc(NC(=O)NC2N=C(N(C)C3CCC(C)(C)CC3)c3ccccc3N(C)C2=O)c1` (racemic) [Example 77, N-[3(R,S)-5-(N-(4,4-Dimethylcyclohexyl)-N-methylamino)-2,3-dihydro-1-methyl-2-oxo-1H-1,4-benzodiazepin-3-yl]-N'-[3-methylphenyl]urea] as the compound, how does the IC50 [1, 3] read?
A: The IC50 was 0.0811 µM.

Q: What about the IC50 [2, 4] of the same compound?
A: Its IC50 is 0.135 µM.

Q: Which results are given for `CC(C)CN1C(=O)C(NC(=O)c2cc3ccccc3[nH]2)N=C(N2CCCCCC2)c2ccccc21` (racemic) [Example 90, 3(R,S)-N-(2,3-Dihydro-5-(homopiperidin-1-yl)-1-(2-methylpropyl)-2-oxo-1H-1,4-benzodiazepin-3-yl)-1H-indole-2-carboxamide]?
A: IC50 [1, 3]: 0.225 µM; IC50 [2, 4]: 0.0087 µM

Q: What does the source list for `CN1C(=O)C(NC(=O)Nc2cccc(F)c2)N=C(N2CC3CCC(CC3)C2)c2ccccc21` (single isomer, unassigned; (-)) [Example 36, (-)-N-[5-(3-Azabicyclo[3,2,2]nonan-3-yl)-2,3-dihydro-1-methyl-2-oxo-1H-1,4-benzodiazepin-3-yl]-N'-[3-fluorophenyl]urea Hydrochloride]?
A: IC50 [1, 5]: 0.00032 µM; IC50 [2, 6]: 1.4 µM

Q: With `Cc1cccc(NC(=O)NC2N=C(N3[C@H](C)C[C@H](C)C[C@@H]3C)c3ccccc3N(C)C2=O)c1` (single isomer, unassigned) [24 (enantiomer A)] as the compound, how does the IC50 [1, 3] read?
A: The IC50 was 0.000927 µM.

Q: And the IC50 [2, 4]?
A: The IC50 was 2.25 µM.

Q: What does the source list for `Cc1ccc(NC(=O)NC2N=C(N3CC4CCC(CC4)C3)c3ccccc3N(C)C2=O)cc1F` (single isomer, unassigned; (-)) [Example 45, (-)-N-[5-(3-Azabicyclo[3,2,2]nonan-3-yl)-2,3-dihydro-1-methyl-2-oxo-1H-1,4-benzodiazepin-3-yl]-N'-[3-fluoro-4-methylphenyl]urea Hydrochloride]?
A: IC50 [1, 5]: 0.00042 µM; IC50 [2, 6]: > 3 µM

Q: For `COC1CCN(C2=NC(NC(=O)Nc3cccc(C)c3)C(=O)N(C)c3ccccc32)CC1` (single isomer, unassigned) [14 (enantiomer B)], which IC50 [1, 3] is on record?
A: Its IC50 is 0.174 µM.

Q: What about the IC50 [2, 4] of the same compound?
A: The IC50 was 0.0114 µM.

Q: `Cc1ccc(NC(=O)NC2N=C(N3CC4CCC(CC4)C3)c3ccccc3N(C)C2=O)cc1F` (single isomer, unassigned; (+)) [Example 46, (+)-N-[5-(3-Azabicyclo[3,2,2]nonan-3-yl)-2,3-dihydro-1-methyl-2-oxo-1H-1,4-benzodiazepin-3-yl]-N'-[3-fluoro-4-methylphenyl]urea Hydrochloride] was tested. Which IC50 [1, 5] did it give?
A: Its IC50 is 0.0201 µM.

Q: And the IC50 [2, 6]?
A: The IC50 was 0.0237 µM.

Q: Which results are given for `CCCN(C1=NC(NC(=O)Nc2cccc(C)c2)C(=O)N(C)c2ccccc21)C1CCCCC1` (racemic) [Example 79, N-[3(R,S)-5-(N-Cyclohexyl-N-propylamino)-2,3-dihydro-1-methyl-2-oxo-1H-benzodiazepin-3-yl]-N'-[3-methylphenyl]urea]?
A: IC50 [1, 3]: 0.0134 µM; IC50 [2, 4]: 1.7 µM

Q: Which IC50 [1, 3] does the source give for `Cc1cccc(NC(=O)NC2N=C(N3CCC(C)(C)CC3)c3ccccc3N(C)C2=O)c1` (single isomer, unassigned) [10 (enantiomer A)] here?
A: Its IC50 is 0.00076 µM.

Q: What about the IC50 [2, 4] of the same compound?
A: The IC50 was 0.421 µM.

Q: `Cc1cccc(NC(=O)NC2N=C(N3CCC(C)(C)CC3)c3ccccc3N(CC(F)(F)F)C2=O)c1` (single isomer, unassigned) [28 (enantiomer B)] was tested. Which IC50 [1, 3] did it give?
A: The IC50 was 0.281 µM.

Q: And the IC50 [2, 4]?
A: The IC50 was 0.00397 µM.

Q: `Cc1cccc(NC(=O)NC2N=C(N3CCC(C(F)(F)F)CC3)c3ccccc3N(C)C2=O)c1` (single isomer, unassigned) [20 (enantiomer A)] was tested. Which IC50 [1, 3] did it give?
A: The IC50 was 0.00152 µM.

Q: And the IC50 [2, 4]?
A: The IC50 was 3.29 µM.

Q: What does the source list for `Cc1cccc(NC(=O)NC2N=C(N(C)CCN3CCOCC3)c3ccccc3N(C)C2=O)c1` (racemic) [Example 85, N-[3(R,S)-2,3-Dihydro-5-(N-(2-N-morpholinoethyl)-N-methylamino)-1-methyl-2-oxo-1H-1,4-benzodiazepin-3-yl]-N'-[3-methylphenyl]urea]?
A: IC50 [1, 3]: 0.785 µM; IC50 [2, 4]: > 3 µM
